# Measurements from patent US9267129B2, “Compositions and methods for conferring herbicide resistance” (BEN-GURION UNIVERSITY OF THE NEGEV RESEARCH AND DEVELOPMENT …, priority 2011, dated 2016).
# Tests used:
# [1] = test system: E. coli BUM1 transformed with the wild type PiAHAS genes; assay: Growth on M9 plates with SMM, bacteria transformed with wild type PiAHAS genes; assay type: cell-based, Escherichia coli; details: 50 μM SMM, 48 hrs, 37° C.
# Protocol: (§1) This strain also requires proline and thiamin, regardless of AHAS expression. Transformation of BUM1 cells was achieved using a standard heat shock protocol. BUM1 cells were grown in LB or in M9 minimal medium (7 mg/ml Na2HPO4; 3 mg/ml KH2PO4; 0.5 mg/ml NaCl; 1 mg/ml NH4Cl; 0.12 mg/ml MgSO4; 0.35 mg/ml thiamin HCl; 2 mg/ml glucose) supplemented with 200 μg/ml proline. Where appropriate, the M9 medium was supplemented with the BCAAs valine, leucine, and isoleucine (150 μg/ml of each) or with 50 μM SMM. BUM1 transformants were propagated and kept on LB medium supplemented with 100 μg/ml Ampicillin. For functional expression assays, the cells were washed and plated on M9 agar plates and incubated for 48 hrs at 37° C. […]
# (§2) The expression vector pEp-empty, an empty plasmid that retains the native ilvEp promoter and ATG start codon, was created by amplification of pAH29 plasmid with the pAH29-empty primer set, and included BamHI and SalI restriction sites for future fusion with the algal genes. Three forms of PiAHAS genes were used for this experiment: PiAHAS full open reading frame (ORF), truncated PiAHAS without the estimated chloroplast targeting peptide (from Serine91), and PimAHAS containing the point mutation (W605S). […] The plates were incubated for 48 hrs (FIG. 3) and bacterial growth was determined. […]
# [2] = test system: E. coli BUM1 transformed with pAH29 (bacterial AHASII); assay: Growth on M9 plates with SMM, bacteria transformed with pAH29; assay type: cell-based, Escherichia coli; details: 50 μM SMM, 48 hrs, 37° C.
# Protocol: as §1, §2
smiles,measurement,setting,value
"COC(=O)c1ccccc1S(=O)(=O)NC(=O)Nc1nc(C)cc(C)n1 [SMM, sulfometuron methyl]",bacterial growth in presence of SMM,[1],totally inhibited
same,bacterial growth in presence of SMM,[2],able to grow slowly
